Experimental data taken from patent US20240335439A1, “USE OF AND METHOD FOR TELAPREVIR IN PREPARATION OF DRUG FOR TREATING AN ISCHEMIA/REPERFUSION INJURY AND CYTOPROTECTIVE DRUG” (THE THIRD XIANGYA HOSPITAL OF CENTRAL SOUTH UNIVERSITY, priority 2021, published 2024).

Key:
[1] = system: Alzheimer's disease mouse models; experiment: Alzheimer's disease mouse model (Aβ1-42 into hippocampus), Morris water maze experiment; assay type: in vivo, ICR mice; conditions: telaprevir 40 mg/kg intramuscular daily for 17 days, #P<0.05 vs AD+vehicle
Experimental: (§1) Experimental animals: 7-week-old healthy male ICR mice weighing 25-30 g. The experimental animals were raised for one week in an environment with a temperature of 25° C., a relative humidity of 60%, free drinking water, and timed and quantified feeding, and then administered according to the requirements of each experimental group.
(§2) Building of an Alzheimer's disease mouse model and drug treatment: Aβ1-42 was purchased from MCE Reagent Company, dissolved in DMSO, diluted with physiological saline to 2 μg/μL, and incubated in an incubator at 37° C. for 7 days to convert the Aβ1-42 into an aggregated state. […]
(§3) A learning and memory ability and cognitive function of mice were detected by a Morris water maze experiment and a new/old object recognition experiment.
According to the requirements of the water maze experiment, a Morris water maze was divided into four quadrants, a platform having a diameter of 12 cm and a height of 35 cm was placed in one of the quadrants, water was added to submerge the platform 1-2 cm, and the pool water was dyed black with carbon ink. After the positioning navigation experiment lasted for 5 days, the platform was removed for a spatial probe experiment, and the time for the mice to reach the original platform position (namely, incubation period) and the number of times they crossed the platform were recorded.

[2] = system: Alzheimer's disease mouse models; experiment: Alzheimer's disease mouse model (Aβ1-42 into hippocampus), new/old object recognition experiment; assay type: in vivo, ICR mice; conditions: telaprevir 40 mg/kg intramuscular daily for 17 days; ##P<0.01 vs vehicle group, FIG. 7
Experimental: as §1, §2, §3
According to the requirements of the new/old object recognition experiment, the experiment included three stages: an adaptation period, a training period, and a testing period. […] One of the two objects was replaced with another object with a different shape and color (denoted as C), and the time for the experimental mice to probe the two different objects within 10 minutes was recorded. […]

[3] = system: ischemic stroke rat models; experiment: Ischemic stroke rat model (MCAO 2 h, reperfusion 24 h); assay type: in vivo, SD rats; conditions: telaprevir 60 mg/kg after 2 hours of ischemia and 1 hour of reperfusion
Experimental: as §1, with “Healthy” for “7-week-old healthy”, “SD rats” for “ICR mice”, “250-300” for “25-30”
Method for building an ischemic stroke rat model: A cerebral ischemia/reperfusion rat model was prepared by a middle cerebral artery occlusion (MCAO) method. […]
Rat brain TTC staining and infarct volume measurement: After the rat was anesthetized, the brain was quickly taken out, the olfactory bulb and posterior brain were removed, and five coronal brain slices having a thickness of about 2.0 mm were cut from the antiunion, immediately placed in a 1% TTC solution, incubated at 37° C. in dark for 30 minutes, and then soaked and immobilized in a 10% paraformaldehyde solution. […] The infarct area of each brain slice was measured by ImageJ, and an infarct volume of the whole brain was calculated according to a formula: infarct volume=[(sum of front infarct areas of all slices+sum of back infarct areas of all slices)/2]×the thickness of each slice, that is, a sum of infarct volumes of all brain slices. […]
Neurological function scores of rats were detected and cerebral infarct volumes were measured.

## CCC[C@H](NC(=O)[C@@H]1[C@H]2CCC[C@H]2CN1C(=O)[C@@H](NC(=O)[C@@H](NC(=O)c1cnccn1)C1CCCCC1)C(C)(C)C)C(=O)C(=O)NC1CC1 [telaprevir]
[1]; FIG. 6A
  time to find the original platform position (incubation period), Morris water maze: significant decrease
[1]; FIG. 6B
  number of times they crossed the platform, Morris water maze: significant increase
[2]
  cognitive index, new/old object recognition: significantly increased
[3]; ##P<0.01 vs I/R, FIG. 2B
  neurological impairment symptoms (Longa neurological function score) of rats: significantly improve
[3]; vs I/R, FIG. 2A
  cerebral infarct volume of rats (TTC staining): significantly decreased
